Experimental data as given in ChEMBL document CHEMBL1201862, “PubChem BioAssay data set” (2004).
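96-well plates; 48 h exposure; 5 concentrations. Endpoints by linear interpolation between flanking doses. Not reached: highest tested concentration assigned. GI50: concentration for 50% inhibition of growth.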 Active and inactive are the calls of the source. Rule as the data show it: active = GI50 up to about 1.1 µM and inactive = higher.

Columns and labels:
Assay in all cases: NCI anticancer screen, dose series, 48 h
[1] = test system: RPMI-8226
[2] = test system: SK-MEL-5
[3] = test system: HCT-116
[4] = test system: Hs-578T
[5] = test system: MDA-MB-435
[6] = test system: HOP-62
[7] = test system: NCI-H460
[8] = test system: PC-3
[9] = test system: 786-0
[10] = test system: HCC 2998
[11] = test system: OVCAR-3
[12] = test system: KM12
[13] = test system: MDA-MB-231
[14] = test system: CCRF-CEM
[15] = test system: SN12C
[16] = test system: DU-145
[17] = test system: SR
[18] = test system: SK-MEL-2
[19] = test system: NCI-H226
[20] = test system: SF-539

Measured: GI50

O=C1Nc2ccccc2C1(O)Cc1ccccn1 (stereo not given)
inactive: [1] > 100 µM | [2] > 100 µM | [3] > 100 µM | [4] > 100 µM | [5] > 100 µM | [6] > 100 µM | [7] > 100 µM | [8] > 100 µM | [9] > 100 µM | [10] > 100 µM | [11] > 100 µM | [12] > 100 µM | [13] > 100 µM | [14] > 100 µM | [15] > 100 µM | [16] > 100 µM | [17] > 100 µM | [18] > 100 µM | [19] > 100 µM

Cc1cccc(NC(=S)Nc2cccc(Cl)c2)n1
inactive: [1] > 100 µM | [20] 30.1 µM | [2] > 100 µM | [3] > 100 µM | [4] > 65.3 µM | [5] > 100 µM | [6] 39.4 µM | [7] > 100 µM | [8] > 100 µM | [9] > 70.6 µM | [10] > 100 µM | [11] > 100 µM | [12] > 100 µM | [13] > 100 µM | [14] > 100 µM | [15] > 100 µM | [16] > 100 µM | [17] > 100 µM | [18] > 72.8 µM | [19] > 56.9 µM

CSC(=O)c1sc(SC)[n+](-c2ccccc2)c1O
inactive: [1] 21.5 µM | [20] 15.1 µM | [2] 20.8 µM | [3] 16.8 µM | [4] 28.3 µM | [5] 18.7 µM | [6] 17 µM | [7] 27.9 µM | [8] 14 µM | [9] 17.9 µM | [10] 19.6 µM | [11] 13.2 µM | [12] > 10 µM | [13] 11.3 µM | [14] 8.28 µM | [15] 19.6 µM | [16] 16 µM | [17] 29.8 µM | [18] 22 µM | [19] 22.5 µM

Cc1ccc2nc(N/N=C/c3cccc(C)n3)cc(C)c2c1
inactive: [1] 14 µM | [20] 17.8 µM | [2] 17.2 µM | [3] 14.7 µM | [4] 23.8 µM | [5] 15.7 µM | [6] 16 µM | [7] 6.89 µM | [8] 17.7 µM | [9] 16.2 µM | [10] 12.6 µM | [11] 14 µM | [12] 12.7 µM | [13] 18.6 µM | [15] 17.2 µM | [16] 17.3 µM | [17] 16.4 µM | [18] 18.8 µM | [19] 24.7 µM

O=C(CC(C(=O)c1cccs1)c1ccsc1)c1ccc(Cl)s1 (stereo not given)
inactive: [1] 55.1 µM | [20] > 100 µM | [2] 70.3 µM | [3] 47.5 µM | [4] 60.1 µM | [5] 85.7 µM | [6] > 100 µM | [7] > 100 µM | [8] > 100 µM | [9] > 100 µM | [10] > 100 µM | [12] > 100 µM | [13] > 100 µM | [14] > 100 µM | [15] > 100 µM | [16] > 100 µM | [17] 39.2 µM | [18] > 100 µM | [19] > 100 µM

Cc1ccc(/C=C2\CCS(=O)(=O)c3ccccc3C2=O)cc1
inactive: [1] 31.4 µM | [20] 12.7 µM | [3] 13.1 µM | [4] 37.4 µM | [5] 20.6 µM | [6] 26.7 µM | [7] 14.8 µM | [8] 20.4 µM | [9] 16.3 µM | [10] 14.7 µM | [11] 17.2 µM | [12] 15.5 µM | [13] 16.9 µM | [14] 13.8 µM | [15] 19.1 µM | [16] 14.2 µM | [17] 10.6 µM | [18] 21.9 µM | [19] 16.6 µM

CSCCCNC(=O)c1csc([C@@H](CSC)NC(=O)CCNC(=O)[C@@H](NC(=O)OCC(Br)(Br)Br)C(C)O)n1 (stereo not given in full)
inactive: [20] > 100 µM | [2] > 100 µM | [3] > 100 µM | [4] > 100 µM | [5] > 100 µM | [6] > 100 µM | [7] > 100 µM | [8] > 100 µM | [9] > 100 µM | [10] > 100 µM | [11] > 100 µM | [12] > 100 µM | [13] > 100 µM | [14] > 100 µM | [15] > 100 µM | [16] > 100 µM | [17] > 100 µM | [18] > 100 µM | [19] > 100 µM
